The values below are quoted from earlier work in US20200113856A1, “NON-PRESCRIPTION MOTION SICKNESS MEDICATION CONTAINING AN ANALGESIC, AN H2 BLOCKER, AND AT LEAST ONE ANTACID” (priority 2018, published 2020).

For one data set, the system named is motion sickness. The conditions noted are these: patch worn behind the ear.
A further data set has as its target histamine H2 receptors (Homo sapiens, UniProt P25021). The conditions noted are these: equimolar basis.
The subject of a further data set is reflux esophagitis. The following applies: patients with reflux esophagitis.
A further data set concerns blood pressure. The following applies: several types of rat models susceptible to salt-sensitive hypertension, in contrast with sodium chloride.
A further data set deals with risk of stroke. The following applies: in vivo.
The next data set has as its system platelet thromboxane. The following applies: high-dose, throughout the dosing interval.

Chain of histamine H2 receptors (P25021 whole entry): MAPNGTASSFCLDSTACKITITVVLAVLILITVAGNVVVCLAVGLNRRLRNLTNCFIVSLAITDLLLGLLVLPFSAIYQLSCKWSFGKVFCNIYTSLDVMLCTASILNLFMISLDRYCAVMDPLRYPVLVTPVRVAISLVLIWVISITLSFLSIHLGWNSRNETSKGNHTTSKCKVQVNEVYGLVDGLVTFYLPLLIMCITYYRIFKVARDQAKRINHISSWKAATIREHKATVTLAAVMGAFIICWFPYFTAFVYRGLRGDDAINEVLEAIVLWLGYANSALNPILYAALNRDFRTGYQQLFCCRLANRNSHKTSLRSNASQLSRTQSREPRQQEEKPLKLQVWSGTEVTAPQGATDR

`CN1[C@@H]2C[C@@H](OC(=O)[C@H](CO)c3ccccc3)C[C@H]1[C@@H]1O[C@@H]12` [Scopolamine]: in the data set with motion sickness, the “duration of effectiveness of patch” value is “three days”.
As to `NC(N)=Nc1nc(CSCCC(N)=NS(N)(=O)=O)cs1` [famotidine], at histamine H2 receptors, the “times more potent than cimetidine” value is about 20 times, the “times more potent than nizatidine” value is recorded as “approximately 7.5 times” and the “times more potent than ranitidine” value was “approximately 7.5 times”.
On to `CNC(=C[N+](=O)[O-])NCCSCc1csc(CN(C)C)n1` [nizatidine], for which the “effectiveness as maintenance therapy versus famotidine” value with reflux esophagitis is “more effective H2RA than famotidine”.
On to `CC(=O)Oc1ccccc1C(=O)O` [Aspirin, acetylsalicylic acid], for which the “time until effects begin” value in the data set with pain or fever (for pain or fever) was at most 30 min.
With `O=C([O-])O.[Na+]` [Sodium bicarbonate, sodium hydrogen carbonate], the “effect on blood pressure” value in the data set with blood pressure is listed as “no effect”.
On to `COc1ccc2cc([C@H](C)C(=O)O)ccc2c1` [Naproxen], for which, in the data set with risk of stroke, the “associated risk of stroke compared with ibuprofen” value is “roughly 50%”. Further, the “suppression of platelet thromboxane” value in the data set with platelet thromboxane is on record as “near-complete suppression”.
For `CC(=O)Nc1ccc(O)cc1` [Acetaminophen], the duration of effects entry in the data set with pain or fever (in vivo) was “between two and four hours”.
